Values quoted from earlier work as cited in patent US20250049842A1, “THERAPEUTIC BLOOD-ACID-SHIFTING COMPOSITIONS AND METHODS” (priority 2023, published 2025).

Conditions: for pKa (pKa1, first or only dissociation): step (1) HA/A−; for pKa2 (second dissociation): step (2)

Structure (SMILES)	pKa (pKa1, first or only dissociation)	pKa2 (second dissociation)	pKa (third dissociation) (step (3))	pKa (fourth dissociation) (step (4))
Nc1nc2ncc(CNc3ccc(C(=O)N[C@@H](CCC(=O)O)C(=O)O)cc3)nc2c(=O)[nH]1 [Folic Acid, reference compound]	1.63	2.71	4.68	7.53
O=NO [Nitrous]	3.39			
[O-][Cl+2]([O-])O [Chloric Acid]	< 1			
O=[N+]([O-])O [Nitric Acid]	< 1			
O=S(O)O [Sulfurous Acid]	1.18	6.91		
CC(=O)C(=O)O [Pyruvic Acid]	2.49			
[O-][Cl+3]([O-])([O-])O [Perchloric Acid]	< 1			
